What all share (assay type): physicochemical
A short description of data set [1]: Physical and chemical stability under 25° C./60% RH and 40° C./75% RH. The conditions noted are these: for degradation and/or form change: 25° C./60% RH and 40° C./75% RH, one week; for Stability results (Open for 1 week) Form change: XRPD; for Initial Purity (area %): before storage. On the procedure: Stability measurements were analyzed with a Waters H-Class ultra-performance liquid chromatography (UPLC) system using the conditions and parameters listed below.
Approximately 20 mg of a solid sample of each crystalline form was added to a HPLC vial (open dish) and then stored under 25° C./60% RH or 40° C./75% RH. After one week, the samples were removed from the test conditions and analyzed by HPLC and XRPD to assess chemical and physical stability, respectively.

Data set [2] can be described thus: Dynamic Vapor Sorption (DVS). The conditions noted are these: for moisture uptake / hygroscopicity: 25° C./80% RH; for hygroscopicity: DVS. On the procedure:
Dynamic Vapor Sorption (DVS) analysis was conducted using a SMS (Surface Measurement Systems) DVS Intrinsic analyzer using the parameters listed below. [table]

Data set [3] can be described thus: Competitive slurry of Form A and Form C of Compound 1. The conditions noted are these: 2 days. An excerpt: The obtained solids were isolated for XRPD analysis.
Data set [4] can be described thus: Form E exposed to ambient condition. The conditions noted are these: 5 hours.

The structures appear in SMILES notation. Entries after “also recorded” stand apart in the source; their conditions may differ.

In the case of `CCCn1cc(-n2c(Cl)c(Sc3cccc(C(=O)O)c3F)c3ccc(Cl)c(F)c32)cn1` [Form 1 of Compound 1-A], in data set [1], the “degradation and/or form change” value was “no significant degradation and/or form change” and the “Initial Purity (area %)” value is 99.79 area %. Moreover, in data set [1] (25° C./60% RH), the “Stability results (Open for 1 week) Appearance” value is given as “No”, the “Stability results (Open for 1 week) Purity (area %)” value (“Stability results … (area %)” for short) was 99.73 area % and the “Stability results (Open for 1 week) Form change” value is recorded as “No”. In data set [1] (40° C./75% RH), the “Stability results (Open for 1 week) Appearance” value is listed as “No”, the “Stability results … (area %)” value is listed as 99.73 area % and the “Stability results (Open for 1 week) Form change” value is recorded as “No”. Moreover, in data set [2], the moisture uptake is 0.32% and the hygroscopicity result is on record as “slightly hygroscopic”. Further, in data set [2] (listed as crystalline Form 1), the hygroscopicity result was “slightly hygroscopic; also recorded: non-hygroscopic”.
Regarding `CCCn1cc(-n2c(Cl)c(Sc3cccc(C(=O)O)c3F)c3ccc(Cl)c(F)c32)cn1` [Form 3 of Compound 1-B], in data set [1], the “degradation and/or form change” value is reported as “no significant degradation and/or form change” and the “Initial Purity (area %)” value is 99.77 area %. Also, in data set [1] (25° C./60% RH), the “Stability results (Open for 1 week) Appearance” value is recorded as “No”, the “Stability results … (area %)” value amounted to 99.72 area % and the “Stability results (Open for 1 week) Form change” value is recorded as “No”. Moreover, in data set [1] (40° C./75% RH), the “Stability results (Open for 1 week) Appearance” value is listed as “No”, the “Stability results … (area %)” value was 99.73 area % and the “Stability results (Open for 1 week) Form change” value is given as “No”. In data set [2], the moisture uptake was found to be 0.1% and the hygroscopicity entry is listed as “non-hygroscopic”. Moreover, the “form change after DVS test” value in data set [2] (after DVS test) is recorded as “No form change”.
`CCCn1cc(-n2c(Cl)c(Sc3cccc(C(=O)O)c3F)c3ccc(Cl)c(F)c32)cn1` [Form A + Form C]: the “XRPD Result” value is listed as “Form C” in data set [3] (Acetone, water activity 0.0, room temperature); “Form A” in data set [3] (Acetone/H2O (605:395), water activity 0.8, room temperature); “Form A” in data set [3] (Acetone/H2O (858:142), water activity 0.6, room temperature); “Form C” in data set [3] (Acetone/H2O (950:50), water activity 0.4, room temperature); “Form C” in data set [3] (Acetone/H2O (986:14), water activity 0.2, room temperature); “Form A” in data set [3] (H2O, water activity 1.0, room temperature).
For `CCCn1cc(-n2c(Cl)c(Sc3cccc(C(=O)O)c3F)c3ccc(Cl)c(F)c32)cn1` [Form A], in data set [1], the “degradation and/or form change” value is “no significant degradation and/or form change” and the “Initial Purity (area %)” value was found to be 99.78 area %. In addition, in data set [1] (25° C./60% RH), the “Stability results (Open for 1 week) Appearance” value is listed as “No”, the “Stability results … (area %)” value was determined as 99.82 area % and the “Stability results (Open for 1 week) Form change” value is “No”. In data set [1] (40° C./75% RH), the “Stability results (Open for 1 week) Appearance” value is on record as “No”, the “Stability results … (area %)” value amounted to 99.75 area % and the “Stability results (Open for 1 week) Form change” value was “No”.
For `CCCn1cc(-n2c(Cl)c(Sc3cccc(C(=O)O)c3F)c3ccc(Cl)c(F)c32)cn1` [Form E], the “form transfer on exposure to ambient condition” value in data set [4] is “transferred back to Form A; also recorded: Freeform Type E transferred to freeform Type A after”.

Values taken from patent US20250282759A1, “POLYMORPHIC AND SALT FORMS OF THE AUTOTAXIN INHIBITOR CUDETAXESTAT” (Sabre Therapeutics LLC, priority 2022, published 2025).
